Laboratory results: patent US6534311B2, “Drosophila melanogaster p70S6 kinase” (Novartis AG, priority 1996, dated 2003)

Legend:
[1] = tested on: S6 kinase activity in S2 cells; format: cell-based, Drosophila; settings: S2 cells treated with 100 μM cycloheximide for two hours
Experimental: (§1) Cell extracts are prepared and Drosophila p70^S6K activity is measured as previously described (28) or following immunoprecipitation (Lane, H. A., et al. (1992) EMBO J 11, 1743-1749) with the D20 antibody (2.5 μg).
S2 cells are plated at 5×10^7 cells per 15 cm dish in Schneider's medium supplemented with antibiotic and 10% foetal calf serum. After 24 h, cells are changed to Schneider's medium without serum and after an additional 36 h, 5 plates of cells are treated with 100 μM cycloheximide for two hours with or without pretreatment with […] rapamycin for 15 min. Cell extracts are prepared by dounce homogenisation in Extraction buffer lacking PNPP as described in Reinhard et al., above. Briefly, each extract is centrifuged for 30 min at 3×105 g, filtered through a 0.2 μm membrane (Millipore), and applied at a flow rate of 0.5ml per min to a 1 ml Mono Q column (Pharmacia) equilibrated in Buffer F (Kozma, S.C., et al. (1989) EMBO J 8, 4125-4132). The column is washed with 10 ml of Buffer F, developed at 0.5 ml per min with a 30 ml gradient from 0-0.5M NaCl in the same buffer, and each fraction is diluted 20-fold and assayed for kinase activity. Factions 16-19 are concentrated on 100 μl of FFQ Sepharose and eluted with 300 μl of 0.5M NaCl in Buffer F. […]

Drosophila p70S6K = experiment: S6 kinase activity immunoprecipitated with D20 antibody from concentrated Mono Q fractions; format: cell-based, Drosophila melanogaster; settings: cycloheximide-treated S2 cells, D20 immunoprecipitate and Western blot mobility
Experimental: as §1
S2 cells are plated at 5×10^7 cells per 15 cm dish in Schneider's medium supplemented with antibiotic and 10% foetal calf serum. After 24 h, cells are changed to Schneider's medium without serum and after an additional 36 h, 5 plates of cells are treated with 100 μM cycloheximide for two hours with or without pretreatment with […] rapamycin for 15 min. Cell extracts are prepared by dounce homogenisation in Extraction buffer lacking PNPP as described in Reinhard et al., above. […]
To distinguish between these rapamycin sensitive and insensitive S6 kinase activities and to determine whether either represented Drosophila p70^S6K, extracts from cycloheximide-stimulated S2 cells, pretreated with or without rapamycin, are fractionated by Mono Q chromatography. The fractions eluted from the Mono Q column are monitored by A280 and subjected to an in vitro S6 kinase assay. […] The concentrated samples from cells treated with cycloheximide either in the absence or presence of rapamycin pretreatment, are either immunoprecipitated and assayed for S6 kinase activity or analysed on Western blots employing the D20 antibody. […]

C[C@@H]1C[C@@H]([C@H](O)CC2CC(=O)NC(=O)C2)C(=O)[C@@H](C)C1 [cycloheximide]
increase of S6 kinase activity over basal levels [1]: 2.2 fold | activation of Drosophila p70S6K (Drosophila p70S6K): induces the activation
